Like-named read-outs stand apart in the source and are kept apart here.
How the values were obtained:
[1] = target: TRPV1 receptor (Homo sapiens, UniProt Q8NER1); test: Block of TRPV1 receptor activation by capsaicin in vitro; assay type: biochemical
[2] = system: MIA-induced osteoarthritic rats; test: Osteoarthritic pain model in rats (MIA), hind limb grip force; assay type: in vivo, rat; conditions: for ED50: po, p.o., acute dosing
Experimental: Unilateral knee joint osteoarthritis was induced in the rats by a single intraarticular (i.a.) injection of sodium monoiodoacetate (MIA) (Sigma, St. Louis, Mo.) (3 mg in 0.05 mL sterile isotonic saline) into the joint cavity using a 26 G needle under light (2-4%) halothane (Halocarbon Laboratories, River Edge, N.J.) anesthesia [Bove S E, Calcaterra S L, Brooker R M, Huber C M, Guzman R E, Juneau P L, et al. Weight bearing as a measure of disease progression and efficacy of anti-inflammatory compounds in a model of monosodium iodoacetate-induced osteoarthritis. Osteoarthritis Cartilage 2003; 11:821-30]. Following injection, the animals were allowed to recover from the effects of anesthesia (usually 5-10 min) before returning them to their home cages.
MIA-induced nociception can be assessed by measuring differences in weight bearing (WBD) or decrease in grip force (GF) several days to weeks following MIA injection [Bove S E, Calcaterra S L, Brooker R M, Huber C M, Guzman R E, Juneau P L, et al. Weight bearing as a measure of disease progression and efficacy of anti-inflammatory compounds in a model of monosodium iodoacetate-induced osteoarthritis. Osteoarthritis Cartilage 2003; 11:821-30; Fernihough J, Gentry C, Malcangio M, Fox A, Rediske J, Pellas T, et al. Pain related behaviour in two models of osteoarthritis in the rat knee. Pain 2004; 112:83-93].
In addition to weight-bearing differences, grip strength was also assessed in osteoarthritic rats approximately 21 days after MIA injection. Measurements of peak hind limb grip force were conducted by recording the maximum compressive force exerted on the hind limb strain gauge setup, in a commercially available grip force measurement system (Columbus Instruments, Columbus, Ohio). During testing, each rat was gently restrained by grasping around its rib cage and then allowed to grasp the wire mesh frame (10-12 cm^2) attached to the strain gauge. The experimenter then moved the animal in a rostral-to-caudal direction until the grip was broken. Each rat was sequentially tested twice at an approximately 2 min interval to obtain a raw mean grip force […]. These raw mean grip force data were in turn converted to a maximum hind limb compressive force (CFmax) (gram force)/kg body weight for each animal. A group of age-matched naïve animals was added to each experiment and the data obtained from the different dose groups for the compound being tested were compared to the naïve group.
(§1) Compound A was dissolved in 100% polyethylene glycol (PEG 400) for oral administration in a 2 mL/kg injection volume. Compounds B, C, and D were dissolved in 10% ethanol, 20% Tween 80 and 70% polyethylene glycol-400 for oral administration in a 2 mL/kg injection volume. All compounds were dosed orally (p.o.) 60 minutes before behavioral testing.
In the osteoarthritic pain model, animals were dosed twice-daily for 12 days using a dose that was non-efficacious following a single administration (e.g. 3 μmol/kg p.o. for Compound A). The animals were tested 1 hour after acute dosing (p.o.) and on day 12, 1 hour after oral dosing with either vehicle or the test compound.
The analgesic responses were shown as % effect relative to the healthy, untreated rats (naïve group).

[3] = system: bone cancer pain, C3H/HeJ mice; test: Bone cancer pain model in mice (2472 sarcoma); assay type: in vivo; conditions: mouse
Experimental: Male Sprague-Dawley rats (Charles River, Wilmington, Mass.) weighing 200-300 grams were utilized in most experiments. Animals were group housed in AAALAC approved facilities at Abbott Laboratories in a temperature-regulated environment with lights on between 0700 and 2000 h. Food and water were available ad libitum except during testing. All animal handling and experimental protocols were approved by an Institutional Animal Care and Use Committee (IACUC). All experiments were performed during the light cycle. The bone cancer pain experiments were performed on adult male C3H/HeJ mice (Jackson Laboratories, Bar Harbor, Me.), approximately 7-8 weeks old, weighing 25-30 g at the time of tumor cell injection. The mice were housed in accordance with National Institutes of Health Guidelines and kept in a vivarium maintained at 22° C. with a 12 h alternating light-dark cycle. They were given food and water ad libitum except during testing. All procedures were approved by the Institutional Animal Care and Use Committee at the University of Minnesota. All procedures also adhered to the guidelines of the Committee for Research and Ethical Issues of IASP published in PAIN, 16 (1983) 109-110.
An arthrotomy was performed following induction of general anesthesia with sodium pentobarbital (50 mg/kg, intraperitoneal (i.p.)). A needle was inserted into the intramedullary canal to create a pathway for the sarcoma cells. A depression was then made using a pneumatic dental high-speed hand-piece. Mice were injected with Hanks-buffered saline (HBSS) (20 μL, Sigma, St. Louis, Mo.) or HBSS containing the 2472 sarcoma line (ATCC, Rockville, Md., USA). The injection site was sealed with a dental amalgam plug to confine the cells within the intramedullary canal followed by irrigation with sterile water. […] Clips were removed at day 5 so as not to interfere with behavioral testing.
A variety of behavioral measurements was used to assess the extent of bone cancer pain as described previously [Schwei M J, Honore P, Rogers S D, Salak-Johnson J L, Finke M P, Ramnaraine M L, et al. Neurochemical and cellular reorganization of the spinal cord in a murine model of bone cancer pain. J Neurosci 1999; 19:10886-97]. All mice were tested and values obtained for behavioral responses before compound or vehicle administration, and then retested 1 hour following oral dosing. Percent effects were calculated as follows: (1−((Compound Value−Sham Value)/(Vehicle Value−Sham Value)))×100. The number of spontaneous guarding behaviors, representative of nociceptive behavior, was recorded during a 2 min observation period. Guarding was defined as the amount of time an animal held the hind paw aloft while not ambulatory. Mechanical allodynia at the knee joint was evaluated by normally non-noxious palpation of the distal femur every second for 2 min. Following the 2 min palpation, the mice were placed in the observation box and their palpation-induced guarding behavior was measured for an additional 2 min. Normal limb use during spontaneous ambulation in an open field was scored on a scale of 5-0: (5) normal use, (4) some limping, but not pronounced, (3) pronounced limp, (2) limp and guarding behavior, (1) partial non-use of limb, and (0) complete lack of limb use.
as §1

[4] = 30 μmol/kg p.o., acute dosing, fifteen days following tumor cells inoculation

TRPV1 receptor, sequence (Q8NER1 whole entry): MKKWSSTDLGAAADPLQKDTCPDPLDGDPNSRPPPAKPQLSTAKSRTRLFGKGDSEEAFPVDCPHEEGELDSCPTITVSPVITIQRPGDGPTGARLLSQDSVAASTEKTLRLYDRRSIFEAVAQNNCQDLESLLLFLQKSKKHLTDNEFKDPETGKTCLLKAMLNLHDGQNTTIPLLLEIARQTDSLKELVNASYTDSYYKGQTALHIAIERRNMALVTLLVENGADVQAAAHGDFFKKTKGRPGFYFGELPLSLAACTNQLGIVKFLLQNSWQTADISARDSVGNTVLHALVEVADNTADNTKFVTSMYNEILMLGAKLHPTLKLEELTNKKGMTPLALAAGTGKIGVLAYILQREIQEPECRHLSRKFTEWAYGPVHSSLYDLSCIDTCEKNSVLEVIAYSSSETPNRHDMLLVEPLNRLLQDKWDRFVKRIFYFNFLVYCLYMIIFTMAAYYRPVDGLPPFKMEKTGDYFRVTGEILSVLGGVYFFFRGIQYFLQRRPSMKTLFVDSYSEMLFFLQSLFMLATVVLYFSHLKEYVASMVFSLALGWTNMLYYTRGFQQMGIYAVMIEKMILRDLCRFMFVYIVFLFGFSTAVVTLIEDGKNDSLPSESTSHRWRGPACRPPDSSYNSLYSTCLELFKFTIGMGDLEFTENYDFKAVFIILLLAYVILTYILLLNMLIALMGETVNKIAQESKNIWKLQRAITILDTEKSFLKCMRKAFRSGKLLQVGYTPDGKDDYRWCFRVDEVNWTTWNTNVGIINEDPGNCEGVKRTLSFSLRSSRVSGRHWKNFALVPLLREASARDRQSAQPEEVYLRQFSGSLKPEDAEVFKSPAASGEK

## CC(C)(C)c1ccc2c(c1)CC[C@H]2NC(=O)Nc1cccc2[nH]ncc12 [Compound A, N-[(1R)-5-tert-butyl-2,3-dihydro-1H-inden-1-yl]-N′-1H-indazol-4-ylurea]
[1]
  ability to block TRPV1 receptor activation by capsaicin in vitro: potent
[2]; Rattus norvegicus, grip force, MIA-induced osteoarthritic rats, read-out: Acute ED50 (μmol/kg; 95% Cl)
  ED50: 8 µmol/kg
[2]; grip force, 3 μmol/kg p.o. BID 12 days, relative to naïve group
  % Efficacy at Reduced Dose, Chronic (BID, 12 days): 62%
[2]; grip force, 3 μmol/kg p.o., 1 hour after acute dosing, relative to naïve group
  % Efficacy at Reduced Dose, Acute: 20%
[2]; grip force, BID 12 days, reduced dose
  analgesic effects following repeated dosing vs acute dosing: significantly increased
[2]; 480 h, rat, 20 days following MIA injection, read-out: ED50, reversal of decrease in grip force
  ED50: 10 µmol/kg
[3]; 10 μmol/kg p.o. twice-daily for 9 days
  reversal of spontaneous guarding: 45±3%
[3]; 30 μmol/kg p.o., acute dosing
  reversal of evoked pain induced by palpation of the cancerous limb (% effects): 65±4%
[3]; [4]
  reversal of spontaneous guarding: 70±1%
  reversal of the pain-induced decrease in ambulation: 85±15%
[3]; repeated dosing
  evoked pain induced by palpation of the cancerous limb, repeated vs single dosing: Improved analgesic efficacy
[3]; repeated dosing (10 μmol/kg p.o. twice-daily for 9 days)
  effect on spontaneous ambulation: 43±0%
[3]; single dose 10 μmol/kg p.o.
  analgesic effect on spontaneous ambulation: 19±0%
  analgesic effect on spontaneous guarding: 18±6%
